According to US20080317875A1, “Inhibitor of PI3 kinase-dependent inflammatory cytokine synthesis and method for inhibiting the same” (priority 2006, published 2008):

Assays:
[1] = test system: bone marrow-derived dendritic cells (BMDCs); assay: IL-12p70 production in LPS-stimulated BMDCs after pretreatment with GSK3β inhibitor (ELISA); conditions: BMDCs pretreated 1 hr with 10 nM SB216763 or 5 mM LiCl, then 1 μg/ml LPS for 24 hr; FIG. 7B
Method: Bone marrow-derived dendritic cells (BMDCs) were isolated from wild-type mice by the method as described in Example 2. […] Meanwhile, after pretreatment for 1 hr with 10 nM GSK3β inhibitor SB216763 (Sigma) or 5 mM LiCl, the isolated BMDCs were stimulated with a 1 μg/ml LPS solution for 24 hr. The content of IL-12 in the culture supernatants after the stimulation was quantified using the ELISA kit specific to anti-mouse IL-12p70.

[2] = test system: C. rodentium; conditions: B10.D2 mice, vs control group
Method: 200 μl of the culture (a volume equivalent to 2-3×10^8 colony-forming unit (cfu) per mouse) was infected into the mice by oral administration through the diet. Mice were sacrificed after continued housing for a designated period of time. A segment of the distal colon was excised at 4.5 cm from the rectum and the fecal pellets were removed by washing with PBS. After weight measurement and macroscopic observation of the tissue, homogenization was performed with a Potter Elvehjem homogenizer (digital homogenizer, As One). The homogenate was serially diluted with cold PBS and then seeded on MacConkey's agar plates (Difco Laboratories). The number of the colonies produced on the plate was counted to determine CFU per mouse to be used as an indicator of the degree of infection. […]
Wild-type B10.D2 mice were orally infected with C. rodentium by the method as described in Example 3. Three days after infection, the mice were divided into three groups, and one group was sacrificed and the weight of the colon cleared of lumps of feces was measured. […] Each group was housed for three more days, and six days after the infection, the mice in the experimental and control groups were sacrificed and the weight of the colon was measured. […]

[3] = test system: IFN-γ; conditions: MLN cells from mice day 6 after infection, 30 mM LiCO3 in drinking water, vs control group; FIG. 8E
Method: The mesenteric lymph node (MLN) cells were isolated from the mesentery of the mice on day 12 of infection using a syringe needle. After cells were gently suspended, tissue fragments were removed by passing through a 100-μm mesh. Cells were then transferred to RPMI 1640 medium and culture was started at 37° C. Subsequently, the MLN cells were stimulated with bacterial lysate at 37° C. for 72 hr.
Meanwhile, MLN cells were isolated by the method as described in Example 3 from the mice 6 days after the oral infection. The isolated MLN cells were stimulated in vitro with C. rodentium lysate and IFN-γ produced was quantified by ELISA.

SMILES | production of IL-12 (IL-12p70 in culture supernatant) [1] | symptom of bacterial infection in the colon (colon weight, macroscopic and histopathological observation) ([2]; 30 mM LiCO3 in drinking water from day 3 to day 6 after infection, FIG. 8A-C) | number of infecting bacteria in the colon (cfu) ([2]; 30 mM LiCO3 in drinking water, day 6 after infection, p<0.05, FIG. 8D) | expression level of IFN-γ in the lymph node cells [3]
Cn1cc(C2=C(c3ccc(Cl)cc3Cl)C(=O)NC2=O)c2ccccc21 [SB216763, reference compound] | decrease |  |  | 
O=C([O-])[O-].[Li+].[Li+] [LiCO3, lithium carbonate] |  | relieved | significantly decreased | decreased
[Cl-].[Li+] [LiCl, lithium chloride] | decrease |  |  | 
